According to patent US20140303251A1, “Methods Of Treating Acute Kidney Injury With Retinoic Acid” (Beth Israel Deaconess Medical Center, Inc., priority 2011, published 2014):

Key:
[1] = tested on: primary cultures of renal proximal tubule epithelial cells (RPTECs); test: in vitro IRI model: primary RPTEC cultures, mineral oil overlay induced hypoxia followed by reperfusion, qPCR; type: cell-based, mice; details: for CCL20 induction: Nur77 knockout RPTECs; for Nur77 levels (induction after ischemia-reperfusion): RPTECs, hypoxia by mineral oil overlay then reperfusion; for Nur77 levels (induction after ischemia-reperfusion) / Induction of Nr4a family members (Nor-1, Nurr1): vs vehicle; for Induction of Nr4a family members (Nor-1, Nurr1): both wild type and Nur77 knockout RPTEC cultures
Method: (§1) Kidney tissues were snap frozen and stored at −80 deg C. until processing. The tissues were homogenized and total RNA was prepared using RNeasy kit (Qiagen). DNA contamination was eliminated by DNase digestion. The reverse transcribed cDNA was subjected to qPCR using a Sybr green based detection system (SA Bioscience). Relative levels of mRNA was normalized to GAPDH levels and quantified based on 2e-deltaCT method.
Kidneys from 4-5 weeks old mice were harvested after perfusion with sterile PBS. Cortex was separated and minced into ˜1 mm3 pieces and digested using collagenase and soybean trypsin inhibitor for 30 min and 37 degC. The digested mix was spun down and filtered through 200 uM filter followed by a 70 uM filter. The tubules that are retained on the top of the 70 uM filter were collected and cultured in Renal life cell growth medium (Lifeline cell technology) on collagen coated plates. After 7 days of culturing, the cells were used for experiments. The purity of the culture was ascertained by staining for cytokeratin (Anti-cytokeratin antibody: Sigma). To induce ischemia reperfusion injury, confluent monolayer of RPTECs was overlayed with mineral oil for 1 h, followed by reperfusion with complete medium.
Retinoic acid can antagonize Nur77 function by inhibiting its transcriptional induction, DNA binding and nuclear export^17,18. RXRs heterodimerize with Nur77 in response to cell death stimuli, promoting nuclear export and causing Bcl-2 dependent cytochrome c release and apoptosis. Ligand bound RXR inhibits Nur77 function either by retaining it in the nucleus or by inhibiting its transcription by an AP-1 dependent mechanism^18. Since Nur77 deficient mice were protected from renal IRI, whether pharmacologic antagonism of Nur77 by retinoic acid could be used to protect kidneys from acute injury was assessed. To determine whether retinoids could regulate Nur77-dependent signaling in renal epithelia, primary cultures of renal proximal tubule epithelial cells (RPTECs) were generated from either wild type or Nur77 knockout mice. RPTECs were treated with either vehicle or 9-cis-retinoic acid, and subjected to mineral oil overlay induced hypoxia, followed by reperfusion.

renal IRI = test: renal ischemia reperfusion injury (IRI) in mice, 9-cis retinoic acid given 4 h prior; type: in vivo; details: for BUN (serum blood urea nitrogen) / serum creatinine / tubular / renal injury score / apoptotic cells in kidney (TUNEL) / neutrophil infiltration in kidney / CXCL2 gene expression level in kidney: 10 mg/kg 4 h prior to IRI; for BUN (serum blood urea nitrogen) / serum creatinine: 24 h after IRI; for BUN (serum blood urea nitrogen) / serum creatinine / tubular / renal injury score / apoptotic cells in kidney (TUNEL) / neutrophil infiltration in kidney / CXCL2 gene expression level in kidney / Nor-1 and Nurr-1 levels in kidney / Nur77 gene expression level in kidney: vs vehicle; for BUN (serum blood urea nitrogen): P<0.0001; for serum creatinine: P<0.002; for apoptotic cells in kidney (TUNEL) / neutrophil infiltration in kidney: P<0.001; for CXCL2 gene expression level in kidney: P<0.02; for Nor-1 and Nurr-1 levels in kidney / Nur77 gene expression level in kidney: 10 mg/kg body weight 4 h prior to IRI, 24 hours after injury, qPCR; for localization pattern of Nur77: 24 h post IRI, immunochemistry
Method: Male mice of age 8-10 weeks were used in this study. Animals were anesthetized using xylazine and ketamine and kept on 37° C. warming pads. The kidneys were exposed by flank incision and both kidney pedicles were clamped for 45 minutes using non-traumatic microaneurysm clamps (Roboz, Rockville, Md.). Reperfusion was confirmed visually and the incision was sutured. Body temperature of the animals was maintained at 37° C. throughout the procedure.
9-cis retinoic acid in DMSO was administered to animals at a dose of 10 mg/kg body weight, 4 h prior to the IRI procedure. The final concentration of DMSO was 25% (v/v). Control animals received 25% (v/v) DMSO.
Kidneys from animals subjected to IRI were harvested. Transverse sections of the kidneys were either snap frozen in OCT or fixed in 10% formalin and processed for paraffin embedded sections. Renal morphology was assessed by PAS staining (Periodic acid-Schiff reagent). Neutrophil infiltration was assessed by staining formalin fixed paraffin embedded (FFPE) sections with anti-Ly6G (BD). Infiltrating neutrophils were counted in 3 independent HPFs (400×) per section per animal and represented as mean±SEM. Nur77 staining was carried out on FFPE sections after antigen retrievel using anti-mouse Nur77 antibody (Ebioscience). Endogenous mouse Ig was blocked using M.O.M kit from vector labs.
Kidney cell apoptosis was assessed by TUNEL staining using ApopTag® Peroxidase In Situ Apoptosis Detection Kit (Millipore). The apoptotic index was calculated as percentage of dead cells in 3 independent 400×HPF per section per animal by, counting both stained nuclei and total nuclei.
Serum plasma was collected 24 h after ischemia reperfusion and stored at −80 deg C. until further processing. Serum creatinine was quantified using QuantiChrom™ Creatinine Assay Kit (Bioassays systems). Serum blood urea nitrogen levels were measured using Infinity Urea liquid stable reagent (Thermo fisher).
as §1

[2] = Nur77+/+ (wild type) RPTECs, listed as 9-cis-RA

Compound: CC1=C(/C=C/C(C)=C\C=C\C(C)=C\C(=O)O)C(C)(C)CCC1 [9-cis-retinoic acid]
- CCL20 levels ([1]; Nur77+/+ (wild type) RPTECs): very substantially reduced
- Induction of CXCL2 ([1]; Nur77+/+ (wild type) RPTECs): significantly attenuated
- CCL20 levels [1, 2]: reduced
- Induction of CXCL2 [1, 2]: reduced
- CCL20 induction [1]: no further effect
- CCL20 induction ([1]; listed as 9-cis-RA): did not substantially reduce the expression level further
- Induction of CXCL2 ([1]; RPTECs from Nur77 knockout kidneys): no further inhibitory effect
- Induction of CXCL2 ([1]; RPTECs from Nur77 knockout kidneys, listed as 9-cis-RA): did not substantially reduce the expression level further
- Nur77 levels (induction after ischemia-reperfusion) [1]: reduced by about half
- Nur77 levels (induction after ischemia-reperfusion) ([1]; listed as 9-cis-RA): attenuated the induction
- Induction of Nr4a family members (Nor-1, Nurr1) [1]: inhibited
- Induction of Nr4a family members (Nor-1, Nurr1) ([1]; listed as 9-cis-RA): attenuated the induction
- BUN (serum blood urea nitrogen) (renal IRI): reduced
- BUN (serum blood urea nitrogen) (renal IRI; listed as 9-cis-RA): significantly lower
- serum creatinine (renal IRI): reduced
- serum creatinine (renal IRI; listed as 9-cis-RA): significantly lower
- tubular / renal injury score (renal IRI): improved
- apoptotic cells in kidney (TUNEL) (renal IRI): significantly less
- neutrophil infiltration in kidney (renal IRI): much less
- apoptotic cells in kidney (TUNEL) (renal IRI; listed as 9-cis-RA): fewer apoptotic cells
- neutrophil infiltration in kidney (renal IRI; listed as 9-cis-RA): fewer
- CXCL2 gene expression level in kidney (renal IRI): Reduced
- CXCL2 gene expression level in kidney (renal IRI; listed as 9-cis-RA): greatly diminished
- tubular / renal injury score (renal IRI; listed as 9-cis-RA): less injured
- Nor-1 and Nurr-1 levels in kidney (renal IRI): dramatically lower induction
- Nur77 gene expression level in kidney (renal IRI): dramatically lower induction
- Nor-1 and Nurr-1 levels in kidney (renal IRI; listed as 9-cis-RA): reduced
- Nur77 gene expression level in kidney (renal IRI; listed as 9-cis-RA): significantly diminished
- localization pattern of Nur77 (renal IRI): cytoplasmic
- localization pattern of Nur77 (renal IRI; listed as 9 cis-RA): unaltered
- overall level of Nur77 protein expression in kidney (immunochemistry) (renal IRI; mice that received 9-cis-retinoic acid, after renal IRI): dramatically reduced
- transcript level of HIF-1 alpha (renal IRI; treatment prior to the induction of IRI): unchanged
